Assay results taken from the NIST ThermoML archive (doi:10.1016/j.jct.2008.09.002).

Assays:
[1] = xn = mol fraction of the nth substance listed; details: 101.3 kPa, Liquid, Vibrating tube method
[2] = molar heat capacity at constant pressure; xn = mol fraction of the nth substance listed; details: 101.3 kPa, Liquid, Small sample (50 mg) DSC
[3] = excess molar enthalpy (molar enthalpy of mixing); xn = mol fraction of the nth substance listed; details: 303.15 K, 101.3 kPa, Liquid, Calvet calorimetry

C[N+](=O)[O-] [nitromethane] + CCCCn1cc[n+](C)c1.O=S(=O)([O-])C(F)(F)F
Details | mass density, [1] [kg/m3] | molar heat capacity at constant pressure, [2] [J/K/mol]
293.15 K, x2 = 0.0495 | 1173.6 | 121.1
293.15 K, x2 = 0.0972 | 1196.4 | 136
293.15 K, x2 = 0.2021 | 1229.9 | 168.8
293.15 K, x2 = 0.2955 | 1249.1 | 198.5
293.15 K, x2 = 0.4015 | 1264.3 | 231.5
293.15 K, x2 = 0.495 | 1274.2 | 261.4
293.15 K, x2 = 0.5993 | 1282.6 | 294.6
293.15 K, x2 = 0.6939 | 1288.6 | 324.4
293.15 K, x2 = 0.7858 | 1293.3 | 353.8
293.15 K, x2 = 0.8697 | 1296.9 | 380.5
293.15 K, x2 = 0.9286 | 1299.1 | 398.8
298.15 K, x2 = 0.0495 | 1167.4 | 121.4
298.15 K, x2 = 0.0972 | 1190.6 | 136.4
298.15 K, x2 = 0.2021 | 1224.7 | 169.4
298.15 K, x2 = 0.2955 | 1244.2 | 199.4
298.15 K, x2 = 0.4015 | 1259.7 | 232.6
298.15 K, x2 = 0.495 | 1269.7 | 262.6
298.15 K, x2 = 0.5993 | 1278.2 | 296.1
298.15 K, x2 = 0.6939 | 1284.3 | 326.1
298.15 K, x2 = 0.7858 | 1289.1 | 355.6
298.15 K, x2 = 0.8697 | 1292.8 | 382.7
298.15 K, x2 = 0.9286 | 1295.1 | 400.9
303.15 K, x2 = 0.0495 | 1161.2 | 121.8
303.15 K, x2 = 0.0972 | 1184.8 | 137
303.15 K, x2 = 0.2021 | 1219.4 | 170.1
303.15 K, x2 = 0.2955 | 1239.3 | 200.3
303.15 K, x2 = 0.4015 | 1255 | 233.9
303.15 K, x2 = 0.495 | 1265.2 | 263.9
303.15 K, x2 = 0.5993 | 1273.9 | 297.8
303.15 K, x2 = 0.6939 | 1280.1 | 327.9
303.15 K, x2 = 0.7858 | 1285 | 357.5
303.15 K, x2 = 0.8697 | 1288.8 | 385
303.15 K, x2 = 0.9286 | 1291.1 | 403.3
308.15 K, x2 = 0.0495 | 1154.9 | 122.3
308.15 K, x2 = 0.0972 | 1178.9 | 137.5
308.15 K, x2 = 0.2021 | 1214.2 | 170.9
308.15 K, x2 = 0.2955 | 1234.3 | 201.4
308.15 K, x2 = 0.4015 | 1250.3 | 235.2
308.15 K, x2 = 0.495 | 1260.7 | 265.3
308.15 K, x2 = 0.5993 | 1269.6 | 299.5
308.15 K, x2 = 0.6939 | 1275.9 | 329.8
308.15 K, x2 = 0.7858 | 1280.9 | 359.6
308.15 K, x2 = 0.8697 | 1284.7 | 387.4
308.15 K, x2 = 0.9286 | 1287.1 | 405.7
313.15 K, x2 = 0.0495 | 1148.8 | 122.8
313.15 K, x2 = 0.0972 | 1173.2 | 138.2
313.15 K, x2 = 0.2021 | 1209 | 171.7
313.15 K, x2 = 0.2955 | 1229.5 | 202.5
313.15 K, x2 = 0.4015 | 1245.7 | 236.6
313.15 K, x2 = 0.495 | 1256.3 | 266.8
313.15 K, x2 = 0.5993 | 1265.3 | 301.3
313.15 K, x2 = 0.6939 | 1271.7 | 331.8
313.15 K, x2 = 0.7858 | 1276.8 | 361.8
313.15 K, x2 = 0.8697 | 1280.7 | 389.9
313.15 K, x2 = 0.9286 | 1283.1 | 408.3
318.15 K, x2 = 0.0495 | 1142.5 | 123.3
318.15 K, x2 = 0.0972 | 1167.4 | 138.7
318.15 K, x2 = 0.2021 | 1203.7 | 172.5
318.15 K, x2 = 0.2955 | 1224.6 | 203.6
318.15 K, x2 = 0.4015 | 1241.1 | 238
318.15 K, x2 = 0.495 | 1251.8 | 268.3
318.15 K, x2 = 0.5993 | 1261 | 303.2
318.15 K, x2 = 0.6939 | 1267.5 | 334
318.15 K, x2 = 0.7858 | 1272.7 | 364.1
318.15 K, x2 = 0.8697 | 1276.7 | 392.6
318.15 K, x2 = 0.9286 | 1279.1 | 411.1

[3]
Details | excess molar enthalpy [kcal/mol]
x2 = 0.1022 | 0.00932
x2 = 0.1994 | 0.0136
x2 = 0.3029 | 0.0148
x2 = 0.4044 | 0.0141
x2 = 0.5067 | 0.0134
x2 = 0.5931 | 0.0108
x2 = 0.703 | 0.00741
x2 = 0.7814 | 0.0012
x2 = 0.8933 | -0.00215
